From patent US10875874B2, “Ginkgolide B derivative and preparation method and use thereof” (Chengdu Baiyu Ginkgolide Pharmaceuticals Co., Ltd., priority 2015, dated 2020)
Values after ≈ are worked out from the molar mass of the structure shown. Marks after values point to notes of the source that are not given here.

What was measured:
[1] = system: spontaneously hypertensive rats (SHR); assay: Caudal artery systolic pressure of spontaneously hypertensive rats, single administration; type: in vivo, rat; conditions: x ± s, n = 8
Protocol: (§1) 2.1 Grouping and administration of animals: 112 SHR rats (the female and male SHR rats are half and half, and the female rats are not pregnant) with the body weight of 200-250 g are taken, the rats are enabled to adapt to a laboratory for a period of 5 d, blood pressure is measured once at a day to enable the rats to adapt to the environment and detect stimulation. Then, weighing and numbering are carried out, and the SHR rats are equally divided into 14 groups randomly (each group comprises 8 rats), i.e., an SHR rat model control group, a positive control group (captopril, 27 mg/kg), a BZ large-dose group (120 mg/kg/d), a BZ small-dose group (60 mg/kg/d), a BA large-dose group (120 mg/kg/d), a BA small-dose group (60 mg/kg/d), a BL large-dose group (120 mg/kg/d), a BL small-dose group (60 mg/kg/d), a BM large-dose group (120 mg/kg/d), a BM small-dose group (60 mg/kg/d), a BD large-dose group (120 mg/kg/d), a BD small-dose group (60 mg/kg/d), a GB large-dose group (120 mg/kg/d) and a GB small-dose group (60 mg/kg/d). In addition, 8 healthy Wistar rats are taken as a normal control group. Intragastric administration is performed on the rats of each drug group separately according to the above-mentioned doses by 1 mL/100 g body weight, intragastric administration is performed on the rats of the normal control group and the rats of the SHR rat model control group with an equal volume of distilled water, and administration is performed continuously for 8 weeks.
(§2) 2.3 Blood pressure measuring: caudal artery systolic pressure of rats is measured with a Bp-6 noninvasive blood pressure measuring system. Under the condition that the rats are calm, the systolic pressure is continuously measured for 3 times, and the average value of the measured systolic pressure is taken as a pressure measuring result. Observation indexes: (1) single-administration pressure lowering effect: blood pressure of the rats is measured before administration and blood pressure conditions are measured 30 min, 60 min, 90 min and 120 min after first administration; and (2) continuous-administration pressure lowering condition: blood pressure is separately measured 30 min after administration at 1 d, 7 d, 13 d, 19 d, 25 d, 35 d, 49 d and 56 d, the blood pressure is repeatedly measured for 3 times at a day, and the average value of obtained values is taken as a final blood pressure value.

[2] = Weekly food intake of SHR rats; type: in vivo, rat
Protocol: as §1
(§3) 2.2 General state: during observation, conditions such as mind, water drinking, food intake, bowel movement, hair color, body weight and range of motion of rats are observed. Irritable degrees of the rats are divided into III levels: a level I means that the rats are free of obvious response when necks of the rats are seized; a level II means that the rats scream and startle when the necks of the rats are seized; and a level III means that the rats bite or rats of same cages frequently fight when the necks of the rats are seized.
(§4) 3.1 Influence on general state of spontaneously hypertensive rats: the rats of the normal control group are normal in food intake, drinking and motion conditions, sensitive in response, healthy and glossy in hair color, good in mental state and free of any unusual response; the rats of the SHR model group gradually present that back hair is fluffy, clustered and dim, the appetite is reduced, the body weight is reduced, the mind is dispirited and irritable, and the rats are prone to the behaviors of intense resisting, attacking and so on during administration and blood pressure detection, and irritable degrees are mostly changed to a level II and a level III from a level I; and after single administration of ginkgolide B and derivatives thereof, behavioral general state observations of rats of each group are free of obvious difference from those of the model control group.

[3] = system: spontaneously hypertensive rats (SHR); assay: Caudal artery systolic pressure of spontaneously hypertensive rats, 8 weeks of continuous medication; type: in vivo, rat; conditions: x ± s, n = 8
Protocol: as §1, §2

[4] = Weekly body weight of SHR rats; type: in vivo, rat
Protocol: as §1, §3, §4

Water solubility test = conditions: purified water, thermodynamic from solid
Protocol: Measuring method: samples are ground to obtain fine powder, target compounds are quantitatively weighed, the weighed compounds are added into purified water, and the solubility of the compounds is investigated by ultrasonics.

[5] = 60 mg/kg/d intragastric, week 0
[6] = 60 mg/kg/d intragastric, week 1
[7] = 60 mg/kg/d intragastric, week 2
[8] = 60 mg/kg/d intragastric, week 3
[9] = 60 mg/kg/d intragastric, week 4
[10] = 60 mg/kg/d intragastric, week 5
[11] = 60 mg/kg/d intragastric, week 6
[12] = 60 mg/kg/d intragastric, week 7
[13] = 60 mg/kg/d intragastric, week 8
[14] = 120 mg/kg/d intragastric, week 0
[15] = 120 mg/kg/d intragastric, week 1
[16] = 120 mg/kg/d intragastric, week 2
[17] = 120 mg/kg/d intragastric, week 3
[18] = 120 mg/kg/d intragastric, week 4
[19] = 120 mg/kg/d intragastric, week 5
[20] = 120 mg/kg/d intragastric, week 6
[21] = 120 mg/kg/d intragastric, week 7
[22] = 120 mg/kg/d intragastric, week 8

Structure (SMILES): CC(=O)Oc1ccccc1C(=O)O[C@H]1C(=O)O[C@H]2O[C@]34C(=O)OC5C[C@@H](C(C)(C)C)C21[C@@]53[C@@H](O)[C@@H]1OC(=O)[C@@H](C)[C@@]14O (some centres unmarked) [BA]
- Systolic pressure ([1]; 60 mg/kg intragastric single administration, 30 min): 161.36 ± 9.52 mmHg
- Systolic pressure ([1]; 60 mg/kg intragastric single administration, 60 min): 159.62 ± 14.25 mmHg
- Systolic pressure ([1]; 60 mg/kg intragastric single administration, 90 min): 152.56 ± 11.26 mmHg
- Systolic pressure ([1]; 60 mg/kg intragastric single administration, 120 min): 159.87 ± 11.32 mmHg
- Systolic pressure ([1]; 60 mg/kg intragastric single administration, before administration): 165.35 ± 11.62 mmHg
- Systolic pressure ([1]; 120 mg/kg intragastric single administration, 30 min): 149.69 ± 11.62 mmHg
- Systolic pressure ([1]; 120 mg/kg intragastric single administration, 60 min): 155.68 ± 17.35 mmHg
- Systolic pressure ([1]; 120 mg/kg intragastric single administration, 90 min): 161.30 ± 15.64 mmHg
- Systolic pressure ([1]; 120 mg/kg intragastric single administration, 120 min): 158.25 ± 15.61 mmHg
- Systolic pressure ([1]; 120 mg/kg intragastric single administration, before administration): 163.64 ± 10.31 mmHg
- Average dairy food intake [2, 5]: 17.9 g/day
- Average dairy food intake [2, 6]: 18.6^▴ g/d
- Average dairy food intake [2, 7]: 19.8^▴ g/d
- Average dairy food intake [2, 8]: 19.6^▴ g/d
- Average dairy food intake [2, 9]: 18.9^▴ g/d
- Average dairy food intake [2, 10]: 20.7^▴▴ g/d
- Average dairy food intake [2, 11]: 22.3^▴▴ g/d
- Average dairy food intake [2, 12]: 24.6^▴▴ g/d
- Average dairy food intake [2, 13]: 25.5^▴▴ g/d
- Average dairy food intake [2, 14]: 18.1 g/day
- Average dairy food intake [2, 15]: 19.8^▴ g/d
- Average dairy food intake [2, 16]: 20.1^▴▴ g/d
- Average dairy food intake [2, 17]: 20.8^▴▴ g/d
- Average dairy food intake [2, 18]: 21.6^▴▴ g/d
- Average dairy food intake [2, 19]: 23.0^▴▴ g/d
- Average dairy food intake [2, 20]: 24.5^▴▴ g/d
- Average dairy food intake [2, 21]: 25.9^▴▴ g/d
- Average dairy food intake [2, 22]: 27.8^▴▴ g/d
- Systolic pressure ([3]; 60 mg/kg/d intragastric continuous, 1 d, 30 min after administration): 155.29 ± 10.98 mmHg
- Systolic pressure ([3]; 60 mg/kg/d intragastric continuous, 7 d, 30 min after administration): 158.73 ± 13.82 mmHg
- Systolic pressure ([3]; 60 mg/kg/d intragastric continuous, 13 d, 30 min after administration): 153.64 ± 9.75 mmHg
- Systolic pressure ([3]; 60 mg/kg/d intragastric continuous, 19 d, 30 min after administration): 154.85 ± 9.74 mmHg
- Systolic pressure ([3]; 60 mg/kg/d intragastric continuous, 25 d, 30 min after administration): 151.36 ± 10.58 mmHg
- Systolic pressure ([3]; 60 mg/kg/d intragastric continuous, 35 d, 30 min after administration): 153.72 ± 13.68 mmHg
- Systolic pressure ([3]; 60 mg/kg/d intragastric continuous, 49 d, 30 min after administration): 151.70 ± 13.10 mmHg
- Systolic pressure ([3]; 60 mg/kg/d intragastric continuous, 56 d, 30 min after administration): 153.72 ± 12.54 mmHg
- Systolic pressure ([3]; 60 mg/kg/d intragastric continuous, before administration): 165.35 ± 11.62 mmHg
- Systolic pressure ([3]; 120 mg/kg/d intragastric continuous, 1 d, 30 min after administration): 151.48 ± 9.85 mmHg
- Systolic pressure ([3]; 120 mg/kg/d intragastric continuous, 7 d, 30 min after administration): 150.95 ± 9.68 mmHg
- Systolic pressure ([3]; 120 mg/kg/d intragastric continuous, 13 d, 30 min after administration): 145.30 ± 11.62 mmHg
- Systolic pressure ([3]; 120 mg/kg/d intragastric continuous, 19 d, 30 min after administration): 142.39 ± 12.49 mmHg
- Systolic pressure ([3]; 120 mg/kg/d intragastric continuous, 25 d, 30 min after administration): 145.84 ± 11.46 mmHg
- Systolic pressure ([3]; 120 mg/kg/d intragastric continuous, 35 d, 30 min after administration): 143.67 ± 115.62 mmHg
- Systolic pressure ([3]; 120 mg/kg/d intragastric continuous, 49 d, 30 min after administration): 140.69 ± 14.72 mmHg
- Systolic pressure ([3]; 120 mg/kg/d intragastric continuous, 56 d, 30 min after administration): 139.88 ± 13.04 mmHg
- Systolic pressure ([3]; 120 mg/kg/d intragastric continuous, before administration): 163.64 ± 10.31 mmHg
- Body weight [4, 5]: 228.5 g
- Body weight [4, 6]: 233.6 g
- Body weight [4, 7]: 244.8^▴ g
- Body weight [4, 8]: 251.4 g
- Body weight [4, 9]: 257.3 g
- Body weight [4, 10]: 263.7^▴ g
- Body weight [4, 11]: 269.6^▴ g
- Body weight [4, 12]: 281.8^▴▴ g
- Body weight [4, 13]: 292.8^▴▴ g
- Body weight [4, 14]: 231.6 g
- Body weight [4, 15]: 251.4^▴▴ g
- Body weight [4, 16]: 257.6^▴▴ g
- Body weight [4, 17]: 264.1^▴▴ g
- Body weight [4, 18]: 271.2^▴▴ g
- Body weight [4, 19]: 280.6^▴▴ g
- Body weight [4, 20]: 291.2^▴▴ g
- Body weight [4, 21]: 305.9^▴▴ g
- Body weight [4, 22]: 320.4^▴▴ g
- solubility (Water solubility test): 220 µg/mL (≈ 375 µM)
